Experimental data from article PMC13072876 (International Journal of Molecular Sciences, 2026).
Converted amounts (≈) assume the structure as drawn.

Assay: Water solubility, experimental
Format: physicochemical
Excerpt: Table 5 Water solubility of tested compounds experimental [mg/mL] and predicted by the SwissADME web tool. | column: Water Solubility / [mg/mL]

Structure (SMILES)	solubility (water) [mg/mL]	Water solubility experimental (experimental) [mg/mL]
COc1cccc2c1C(=O)c1c(O)c3c(c(O)c1C2=O)C[C@@](O)(C(=O)CO)C[C@@H]3O[C@H]1C[C@H](N)[C@H](O)[C@H](C)O1 [doxorubicin]	50 (≈ 92 mM)	–
COc1cc2c(c(OC)c1OC)-c1ccc(OC)c(=O)cc1[C@@H](NC(C)=O)CC2 [compound 1, colchicine]	–	45
